Measurements from patent US8207346B2, “Methods of synthesizing anatabine” (Rock Creek Pharmaceuticals, Inc., priority 2010, dated 2012).

Assays:
[1] = Stability analysis of anatabine base with and without BHT as a preservative; assay type: physicochemical
Description: See, for example, Tables 3 and 4 in Examples 4 and 5, respectively. Purity of the anatabine may be retained for extended periods of time. […] Further, anatabine remains stable when stored at a variety of temperatures. For example, the anatabine retains the indicated purity when stored at −20° C. to −10° C., −20° C. to 0° C., −10° C. to 0° C., 0° C. to 4° C., 2° C. to 8° C., 5° C. to 10° C., 10° C. to 15° C., 15° C. to 25° C., or 25° C. to 28° C. Stability is determined by any suitable art-recognized method. For example, anatabine stability may be monitored by high performance liquid chromatography (HPLC), liquid chromatography-mass spectroscopy (LC-MS), or nuclear magnetic resonance (NMR).
Anatabine base stability was analyzed with and without BHT (3,5-di-tert-butyl-4-hydroxytoluene). The initial purity of BHT-free anatabine base was 94.95%. The initial purity of anatabine base with BHT was 94.87%.

monoamine oxidase (MAO) = settings: known from Williams et al. U.S. Pat. No. 6,929,811; cited from earlier work

SMILES: C1=CCC(c2cccnc2)NC1 (stereo not shown) [anatabine base without BHT, Anatabine]
- Purity (%) ([1]; day 1, storage temperature 2-8° C.): 94.44%
- Purity (%) ([1]; day 1, storage temperature 25-28° C.): 89.63%
- Purity (%) ([1]; day 1, storage temperature −20° C.): 93.90%
- Purity (%) ([1]; day 2, storage temperature 2-8° C.): 94.05%
- Purity (%) ([1]; day 2, storage temperature 25-28° C.): 87.59%
- Purity (%) ([1]; day 2, storage temperature −20° C.): 94.62%
- Purity (%) ([1]; day 3, storage temperature 2-8° C.): 91.65%
- Purity (%) ([1]; day 3, storage temperature 25-28° C.): 80.74%
- Purity (%) ([1]; day 3, storage temperature −20° C.): 93.87%
- Purity (%) ([1]; day 12, storage temperature 2-8° C.): 90.12%
- Purity (%) ([1]; day 12, storage temperature 25-28° C.): 79.59%
- Purity (%) ([1]; day 12, storage temperature −20° C.): 94.01%
- Inhibition of monoamine oxidase (MAO) (monoamine oxidase (MAO)): inhibit monoamine oxidase (MAO)
